Measurements taken from patent US20080085912A1, “Isoxazole derivatives and methods of treating diseases” (Unitech Pharmaceuticals, Inc., priority 2006, published 2008).
Values joined by “and” are separate entries in the source; they are usually repeats but may differ in a detail not shown here. Equal values may be shown once.

Legend:
[1] = test system: Carrageenan-induced hind paw edema; experiment: Carrageenan-induced hind paw edema test on rats; type: in vivo, SD rats; conditions: for Anti-inflammatory activity (in words): carrageenan-induced edema animal study; for Avg E % of the injected paw: group average of 5 rats; for Avg E % of the injected paw / Edema % of the injected paw: 20 mg/kg i.p. pretreatment; for Volume (ml) of the injected paw / Edema % of the injected paw: individual rats (Rat 1-5); for Volume (ml) of the injected paw: 20 mg/kg i.p. 1 h before carrageenan, 20 mg/kg
Method: Male/female SD rats (180-215 g) were assigned to two groups: (1) control group and (2) test group, with 5 rats in each group. UTR-1 was first dissolved in DMSO (20 mg in 0.5 ml DMSO) and then diluted with 1% CMC (carboxymethylcellulose) to make 5 ml sample preparation. One hour before the carrageenan challenge (pretreatment), 1 ml of the sample preparation was injected i.p. into a rat in a test group. This is equivalent to 20 mg/kg (1 ml×4 mg/ml×1000 g/200 g=20 mg/kg based on the average weight per rat of 200 g). The vehicle without drug was injected in the same way into animals in the control group. In order to induce inflammation, 50 μl of a 1% carrageenan solution in normal saline was injected into the right hind paw subplantar tissue. The development of paw edema was measured by a plethysmometer (Basile 7140 plethysmometer, Ugo, Varese, Italy). After the carrageenan challenge, each paw volume (ml) was measured hourly. The Edema (E %) is calculated as follows: [formula] V0=Volume (mL) of the rear right footpad before the injection of Carrageenan Vt=Volume (mL) of the rear right footpad at “t” time after the injection of Carrageenan

TNF-α = TNF-α released from UVB-irradiated keratinocytes in vitro (ELISA); type: cell-based, Human
Method: 1. Vehicle stock: 50:50 v/v EtOH:PEG 600
2. UTR-1 stock: 3.5 mg/ml UTR-1 in a vehicle of 50:50 v/v EtOH:PEG 600
(§1) Human epidermal keratinocytes were seeded into 6-well plates and grown at 37±2° C. and 5±1% CO2 using serum free Epilife media supplemented as recommended by the manufacturer. Upon reaching confluency, the media were removed and the cells were treated overnight with Epilife media containing 1% v/v each of the stock solutions above (Vehicle stock and UTR-1 stock). Final concentration was 35 μg/ml for UTR-1. Two wells in the 6-well plate were prepared for each treatment. After applying the test material the cells were incubated for 24 hours at 37±2° C. and 5±1% CO2.
(§2) At the end of the incubation period the culture media was removed via aspiration and replaced with phosphate buffered saline and the cells were then irradiated with ˜30 mJ/cm^2 of UVB radiation. After the irradiation, the phosphate buffered saline was replaced by fresh culture media and the cells were incubated overnight at 37±2° C. and 5±1% CO2. After the incubation the cell culture media was collected to measure TNF-α release by a commercial ELISA Assay kit. The cells were washed once with PBS and then a trypsin/EDTA solution was added to release the cells, followed by the addition of trypsin neutralizing solution. The cells were collected and pooled into 15 ml centrifuge tubes based on their treatment and pelleted by centrifuging at 1000 RPM at 4±2° C. After removing the supernatant, the pelleted cells were lysed by adding 500 μl of guanidinium thiocyanate lysis solution to each tube and then repeatedly drawing and releasing the solution into the pipette until the cell pellet is dissolved. Total RNA was then isolated by an RNAqueous kit (Ambion). After purifying the RNA, mRNA is isolated and the converted into anti-sense RNA (aRNA). The aRNA is then labeled with a florescent probe. In this case, Cy3 (green florescent signal) is used to label the sRNA from untreated sample, while Cy5 (red fluorescent) is used to label the aRNA of treated sample. Once the aRNA is labeled and any unincorporated dye is removed from the sample, the labeled aRNA is mixed with a hybridized solution and applied to the microarray. The microarray is then hybridized overnight at 60-65° C. After hybridization, the microarray is washed to remove any unbound aRNA probe and then scanned with a microarray scanner. Criteria for evaluating changes in gene expression may vary. In general, (1) the fluorescence intensity of the gene marker should be greater than the background intensity, and (2) the ratio of Cy5/Cy3 (treated/untreated) fluorescence intensity needs to be greater than 1.3 or less than 0.66 to indicate a change of ±30% in gene expression.

JAK3 = experiment: Gene array analysis, keratinocytes: JAK3; type: cell-based, Human; conditions: for Ratio of treated/control / Suppression %: 35 μg/ml, UVB
Method: as §1, §2

MAP3K2 = experiment: Gene array analysis, keratinocytes: MAP3K2; type: cell-based, Human
Method: as §1
as §2, with “In this case, Cy3 (green florescent signal) is used to label the sRNA from untreated sample, while Cy5 (red fluorescent) is used to label the aRNA of treated sample. Once the aRNA is labeled and any unincorporated dye is removed from the sample, the labeled aRNA is mixed with a hybridized solution and applied to the microarray. The microarray is then hybridized overnight at 60-65° C. After hybridization, the microarray is washed to remove any unbound aRNA probe and then scanned with a microarray scanner. Criteria for evaluating changes in gene expression may vary.” left out

PTGER1 = experiment: Gene array analysis, keratinocytes: PTGER1; type: cell-based, Human; conditions: 35 μg/ml; UVB
Method: as §1
(§3) At the end of the incubation period the culture media was removed via aspiration and replaced with phosphate buffered saline and the cells were then irradiated with ˜30 mJ/cm^2 of UVB radiation. After the irradiation, the phosphate buffered saline was replaced by fresh culture media and the cells were incubated overnight at 37±2° C. and 5±1% CO2. After the incubation the cell culture media was collected to measure TNF-α release by a commercial ELISA Assay kit. […] In general, (1) the fluorescence intensity of the gene marker should be greater than the background intensity, and (2) the ratio of Cy5/Cy3 (treated/untreated) fluorescence intensity needs to be greater than 1.3 or less than 0.66 to indicate a change of ±30% in gene expression.

ITGB6 = experiment: Gene array analysis, keratinocytes: ITGB6; type: cell-based, Human; conditions: 35 μg/ml; UVB
Method: as §1, §3

APOBEC1 = experiment: Gene array analysis, keratinocytes: APOBEC1; type: cell-based, Human; conditions: 35 μg/ml; UVB
Method: as §1, §3

TUCAN = experiment: Gene array analysis, keratinocytes: TUCAN; type: cell-based, Human; conditions: 35 μg/ml; UVB
Method: as §1, §3

EFA6R = experiment: Gene array analysis, keratinocytes: EFA6R; type: cell-based, Human; conditions: 35 μg/ml; UVB
Method: as §1, §3

DEFA6 = experiment: Gene array analysis, keratinocytes: DEFA6; type: cell-based, Human; conditions: 35 μg/ml; UVB
Method: as §1, §3

EPHB4 = experiment: Gene array analysis, keratinocytes: EPHB4; type: cell-based, Human; conditions: 35 μg/ml; UVB
Method: as §1, §3

[2] = UVB ~30 mJ/cm^2, 35 μg/ml, 24 h pretreatment
[3] = array entry MAP3K2 (homo sapien), 35 μg/ml, UVB

## Cc1cc(C(=O)O)no1 [UTR-1, 5-methylisoxazole-3-carboxylic acid]
[1]
  Anti-inflammatory activity (in words): surpassingly effective in anti-inflammation
[1]; listed as 5-methylisoxazole-3-carboxylic aicd
  Anti-inflammatory activity (in words): surprisingly and unexpectedly effective in anti-inflammation
[1]; Time 0 hr
  Avg E % of the injected paw: 0.00%
  Volume (ml) of the injected paw: 1.46 ml and 1.48 ml and 1.35 ml and 1.33 ml (2×)
  Edema % of the injected paw: 0.00%
[1]; Time 1 hr
  Avg E % of the injected paw: 11.90%
  Volume (ml) of the injected paw: 1.77 ml and 1.47 ml and 1.50 ml (2×) and 1.53 ml
  Edema % of the injected paw: 21.23% and −0.68% and 11.11% and 15.04% and 12.78%
[1]; Time 2 hr
  Avg E % of the injected paw: 22.70%
  Volume (ml) of the injected paw: 1.92 mL and 1.53 mL and 1.65 mL and 1.66 mL and 1.75 mL
  Edema % of the injected paw: 31.51% and 3.38% and 22.22% and 24.81% and 31.58%
[1]; Time 3 hr
  Avg E % of the injected paw: 37.85%
  Volume (ml) of the injected paw: 2.36 mL and 1.55 mL and 1.76 mL and 2.10 mL and 1.79 mL
  Edema % of the injected paw: 61.64% and 4.73% and 30.37% and 57.89% and 34.59%
[1]; Time 4 hr
  Avg E % of the injected paw: 49.89%
  Volume (ml) of the injected paw: 2.49 mL and 1.62 mL and 1.78 mL and 2.35 mL and 2.14 mL
  Edema % of the injected paw: 70.55% and 9.46% and 31.85% and 76.69% and 60.90%
TNF-α
  Reduction of TNF-α secreted from stimulated keratinocyte cells (in words): very effective in reducing TNF-α
TNF-α; [2]
  TNFα (pg/ml), Sample2: 119 pg/mL
  TNFα (pg/ml), sample1: 120 pg/mL
TNF-α; average of n=2 wells, UVB ~30 mJ/cm^2, 35 μg/ml
  TNFα Avg.: 120 pg/mL
JAK3; array entry JAK3 (homo sapien)
  Ratio of treated/control: 0.386
  Suppression %: 61%
JAK3; array entry JAK3
  Ratio of treated/control: 0.417
  Suppression %: 58%
JAK3; gene array analysis
  Gene suppression (in words): significantly suppressed
MAP3K2; [3]
  Ratio of treated/control: 0.592
  Suppression %: 40%
MAP3K2; gene array analysis
  Gene suppression (in words): significantly suppressed
PTGER1
  Ratio of treated/control: 0.286
  Suppression %: 71%
ITGB6
  Ratio of treated/control: 0.3
  Suppression %: 70%
APOBEC1
  Ratio of treated/control: 0.333
  Suppression %: 67%
TUCAN
  Ratio of treated/control: 0.333
  Suppression %: 67%
EFA6R
  Ratio of treated/control: 0.375
  Suppression %: 63%
DEFA6
  Ratio of treated/control: 0.38
  Suppression %: 62%
EPHB4
  Ratio of treated/control: 0.433
  Suppression %: 57%
